Data reported in the OligoGym collection.
Where “and” joins values, the source holds several entries; their conditions need not be identical. Equal entries are not always repeated. After the bases stand the sugars from the 5' end (letter, count) and the backbone: PS all phosphorothioate, else s phosphorothioate and o phosphodiester by linkage. Methylation of C is not given here. e = 2'-O-(2-methoxyethyl) (MOE); d = 2'-deoxy (DNA)

Target: DGAT2
Conditions: ASO

For “TCCATTTTTTACCCAACCTT (sugars e5 d10 e5, PS)”, the target mRNA inhibition (HepG2, 2.5 µM) was 56% and 49% and the target mRNA inhibition (HepG2, 10 µM) was 93% and 94%.

With “CTCACATGCCTGAGGGCAGC (sugars e5 d10 e5, PS)” the target mRNA inhibition (HepG2, 2.5 µM) was 65% and the target mRNA inhibition (HepG2, 10 µM) was 87%.

“CTTCTTGCTCACTTCTGTGG (sugars e5 d10 e5, PS)” showed a target mRNA inhibition (HepG2, 0.12 µM) of 25%.

For “ATCCTGGAGGCCAGTCCAGG (sugars e5 d10 e5, PS)”, the target mRNA inhibition (HepG2, 0.12 µM) was 18%.

With “TCCATGTCAGAGAGGCTCAG (sugars e5 d10 e5, PS)” the target mRNA inhibition (HepG2, 2.5 µM) was 54% and the target mRNA inhibition (HepG2, 10 µM) was 91%.

In the case of “ATGCCAATGCCTAGGTCACA (sugars e5 d10 e5, PS)”, the target mRNA inhibition (HepG2, 2.5 µM) is reported as 78% and the target mRNA inhibition (HepG2, 10 µM) is reported as 91%.

In the case of “GCAGGTTGTGTGTCTTCACC (sugars e3 d14 e3, PS)”, the target mRNA inhibition (HepG2, 0.12 µM) is reported as 69%.

Work on “AAGGTAAACTGAGGCCACCA (sugars e5 d10 e5, PS)” yielded a target mRNA inhibition (HepG2, 0.12 µM) of 37%.

For “AAAACCAGTTACTCCACCTA (sugars e5 d10 e5, PS)”, the target mRNA inhibition (HepG2, 0.12 µM) was 0%.

With “GGACCCACTGGAGCACT (sugars e3 d10 e4, PS)” the target mRNA inhibition (HepG2, 2.5 µM) was 57% and the target mRNA inhibition (HepG2, 10 µM) was 93%.

In the case of “TATAATTTCTTTTAAATAAC (sugars e5 d10 e5, PS)”, the target mRNA inhibition (HepG2, 0.12 µM) is reported as 0%.

“AAACACCAGCCAAGTGAAGT (sugars e5 d10 e5, PS)” gave a target mRNA inhibition (HepG2, 0.12 µM) of 9%.

Sequence “ACCCCGGAGTAGGCGGCTAT (sugars e5 d10 e5, PS)” has a target mRNA inhibition (HepG2, 0.12 µM) of 46%.

Work on “GACAGGACCCACTGGAGCAC (sugars e2 d13 e5, PS)” yielded a target mRNA inhibition (HepG2, 0.12 µM) of 73%.

Sequence “TCCAGGACCCTGGACATGAT (sugars e5 d10 e5, PS)” has a target mRNA inhibition (HepG2, 0.12 µM) of 50%.

Work on “GAAGGCACAGAAAAGTGAGG (sugars e5 d10 e5, PS)” yielded a target mRNA inhibition (HepG2, 0.12 µM) of 11%.

With “TCAGCAGGTTGTGTGTCTTC (sugars e5 d10 e5, PS)” the target mRNA inhibition (HepG2, 0.12 µM) was 56% and the target mRNA inhibition (HepG2, 2.5 µM) was 3%.

With “CGCAGGACCCCGGAGTAGGC (sugars e2 d13 e5, PS)” the target mRNA inhibition (HepG2, 0.12 µM) was 71%.

Sequence “AACTTAGGCATGCTTCCTCC (sugars e5 d10 e5, PS)” has a target mRNA inhibition (HepG2, 2.5 µM) of 44% and a target mRNA inhibition (HepG2, 10 µM) of 89%.

With “AGTGCTTTCTAAGTACCCTT (sugars e5 d10 e5, PS)” the target mRNA inhibition (HepG2, 2.5 µM) was 91% and 88% and the target mRNA inhibition (HepG2, 10 µM) was 90% and 94%.

“CTATAGAATCAGACAGACCT (sugars e5 d10 e5, PS)” was tested, and the target mRNA inhibition (HepG2, 2.5 µM) was 31% and the target mRNA inhibition (HepG2, 10 µM) was 78%.

“GGAAACTTTCCCACAGTCAG (sugars e5 d10 e5, PS)” showed a target mRNA inhibition (HepG2, 2.5 µM) of 69% and a target mRNA inhibition (HepG2, 10 µM) of 94%.

With “GGTTTACTGCATAGCTGAGC (sugars e5 d10 e5, PS)” the target mRNA inhibition (HepG2, 2.5 µM) was 79% and 72% and the target mRNA inhibition (HepG2, 10 µM) was 86% and 76%.

Sequence “TAATTTCTTTTAAATAACCC (sugars e5 d10 e5, PS)” has a target mRNA inhibition (HepG2, 0.12 µM) of 0%.

For “TGCCATTTAATGAGCTTCAC (sugars e5 d10 e5, PS)”, the target mRNA inhibition (HepG2, 2.5 µM) was 79% and 81% and the target mRNA inhibition (HepG2, 10 µM) was 91% and 92%.

For “CATTGCCACTCCCATTCTTT (sugars e2 d13 e5, PS)”, the target mRNA inhibition (HepG2, 0.12 µM) was 40%.

“GGAAAACTTAGGCATGCTTC (sugars e5 d10 e5, PS)” was tested, and the target mRNA inhibition (HepG2, 2.5 µM) was 64% and 72% and the target mRNA inhibition (HepG2, 10 µM) was 90% and 87%.

For “CCTAAGGAGTGAGGGTATCT (sugars e5 d10 e5, PS)”, the target mRNA inhibition (HepG2, 2.5 µM) was 39% and 50% and the target mRNA inhibition (HepG2, 10 µM) was 87% and 92%.

For “CACCAGGGCCTCCATGTACA (sugars e5 d10 e5, PS)”, the target mRNA inhibition (HepG2, 2.5 µM) was 31%, the target mRNA inhibition (HepG2, 10 µM) was 69% and the target mRNA inhibition (HepG2, 20 µM) was 26%.

With “AGCTCAGAGACTCAGCCGCA (sugars e2 d13 e5, PS)” the target mRNA inhibition (HepG2, 0.12 µM) was 86%.

In the case of “AAAACAGGGTACAACTCTCT (sugars e5 d10 e5, PS)”, the target mRNA inhibition (HepG2, 2.5 µM) is reported as 73% and 59% and the target mRNA inhibition (HepG2, 10 µM) is reported as 91% and 87%.

“GAGTAGGGCACCAGCCCCCA (sugars e5 d10 e5, PS)” was tested, and the target mRNA inhibition (HepG2, 0.12 µM) was 0%.

For “GTCTGTGCTGCATCCATGTC (sugars e5 d10 e5, PS)”, the target mRNA inhibition (HepG2, 2.5 µM) was 41% and 50% and the target mRNA inhibition (HepG2, 10 µM) was 74%.

In the case of “CAGGCAGGTGTCAGAGGGCT (sugars e5 d10 e5, PS)”, the target mRNA inhibition (HepG2, 0.12 µM) is reported as 21%.

For “ATGGTGTGTTGGCTCCCTGT (sugars e5 d10 e5, PS)”, the target mRNA inhibition (HepG2, 2.5 µM) was 53% and the target mRNA inhibition (HepG2, 10 µM) was 53%.

“TGCAGCCTGGACAAGTCCTG (sugars e3 d14 e3, PS)” was tested, and the target mRNA inhibition (HepG2, 0.12 µM) was 77%, the target mRNA inhibition (HepG2, 2.5 µM) was 27% and the target mRNA inhibition (HepG2, 10 µM) was 51%. The target mRNA inhibition (HepG2, 20 µM) was 68%.

“GCAGCCTGGACAAGTCCTGC (sugars e5 d10 e5, PS)” was tested, and the target mRNA inhibition (HepG2, 0.12 µM) was 70%.

“GCCCAGTTTCGGACCCACTG (sugars e5 d10 e5, PS)” showed a target mRNA inhibition (HepG2, 2.5 µM) of 37%, a target mRNA inhibition (HepG2, 10 µM) of 46% and a target mRNA inhibition (HepG2, 20 µM) of 65%.

For “TCATACTTACTGTTCAGCAG (sugars e5 d10 e5, PS)”, the target mRNA inhibition (HepG2, 2.5 µM) was 74% and 65% and the target mRNA inhibition (HepG2, 10 µM) was 93% and 89%.

“CAGCTGTGATGACTTCCCAG (sugars e5 d10 e5, PS)” gave a target mRNA inhibition (HepG2, 2.5 µM) of 49% and a target mRNA inhibition (HepG2, 10 µM) of 81%.

With “GAGCAGATCTCAAAATCTCG (sugars e5 d10 e5, PS)” the target mRNA inhibition (HepG2, 2.5 µM) was 72% and the target mRNA inhibition (HepG2, 10 µM) was 87%.

For “CAAGGATGACCTTGGGTCAG (sugars e5 d10 e5, PS)”, the target mRNA inhibition (HepG2, 2.5 µM) was 18% and the target mRNA inhibition (HepG2, 10 µM) was 44%.

For “TTTCTTTTAAATAACCCACA (sugars e5 d10 e5, PS)”, the target mRNA inhibition (HepG2, 0.12 µM) was 1%.

“GCCACAGGGCCCTTTCCAGA (sugars e5 d10 e5, PS)” gave a target mRNA inhibition (HepG2, 2.5 µM) of 68% and a target mRNA inhibition (HepG2, 10 µM) of 92%.

“CAGGCATGGAGCTCAGAGAC (sugars e5 d10 e5, PS)” gave a target mRNA inhibition (HepG2, 0.12 µM) of 57%.

For “GAGCTCTCAAGTCTTCC (sugars e3 d10 e4, PS)”, the target mRNA inhibition (HepG2, 2.5 µM) was 55% and 64% and the target mRNA inhibition (HepG2, 10 µM) was 86% and 87%.

With “TGCAGCTAATGATACAAGGT (sugars e5 d10 e5, PS)” the target mRNA inhibition (HepG2, 2.5 µM) was 67% and the target mRNA inhibition (HepG2, 10 µM) was 89%.

“TAGGCTTTAGAAATTCACCA (sugars e5 d10 e5, PS)” was tested, and the target mRNA inhibition (HepG2, 2.5 µM) was 71% and 72% and 76% and the target mRNA inhibition (HepG2, 10 µM) was 89% and 82% and 91%.

In the case of “GCAGCCTGGACAAGTCCTGC (sugars e3 d14 e3, PS)”, the target mRNA inhibition (HepG2, 0.12 µM) is reported as 83%, the target mRNA inhibition (HepG2, 2.5 µM) is reported as 48% and 59% and the target mRNA inhibition (HepG2, 10 µM) is reported as 73%. For the same sequence, the target mRNA inhibition (HepG2, 20 µM) was 81%.

In the case of “CAGATACCTCCAGACATCAG (sugars e5 d10 e5, PS)”, the target mRNA inhibition (HepG2, 0.12 µM) is reported as 38%.

Sequence “AAAACTTAGGCATGCTTCCT (sugars e5 d10 e5, PS)” has a target mRNA inhibition (HepG2, 2.5 µM) of 53% and a target mRNA inhibition (HepG2, 10 µM) of 83%.

“TGAGGTTTAGGCTATGGTCT (sugars e5 d10 e5, PS)” showed a target mRNA inhibition (HepG2, 2.5 µM) of 66% and a target mRNA inhibition (HepG2, 10 µM) of 77%.

Work on “GCATGGAGCTCAGAGACTCA (sugars e5 d10 e5, PS)” yielded a target mRNA inhibition (HepG2, 0.12 µM) of 69%.

With “GCAATGCCAATGCCTAG (sugars e3 d10 e4, PS)” the target mRNA inhibition (HepG2, 2.5 µM) was 69% and 80% and the target mRNA inhibition (HepG2, 10 µM) was 78% and 87%.

For “GACCCACTGTGACCTCCTGC (sugars e5 d10 e5, PS)”, the target mRNA inhibition (HepG2, 0.12 µM) was 25%.

“CCACCACCTAGAACAGGGCA (sugars e5 d10 e5, PS)” gave a target mRNA inhibition (HepG2, 0.12 µM) of 55%.

“ATGAGCTCTCAAGTCTTCCT (sugars e5 d10 e5, PS)” showed a target mRNA inhibition (HepG2, 2.5 µM) of 67% and a target mRNA inhibition (HepG2, 10 µM) of 93%.

In the case of “TGGGAACTATCACACCACCT (sugars e5 d10 e5, PS)”, the target mRNA inhibition (HepG2, 2.5 µM) is reported as 53% and 65% and the target mRNA inhibition (HepG2, 10 µM) is reported as 90% and 94%.

“TCGCTAGAGTACAAGTTCTC (sugars e5 d10 e5, PS)” gave a target mRNA inhibition (HepG2, 2.5 µM) of 88% and a target mRNA inhibition (HepG2, 10 µM) of 93%.

Sequence “CCAATGCCTAGGTCACA (sugars e3 d10 e4, PS)” has a target mRNA inhibition (HepG2, 2.5 µM) of 61% and a target mRNA inhibition (HepG2, 10 µM) of 83%.

“AATGTCACAAGTTCACAAAC (sugars e5 d10 e5, PS)” gave a target mRNA inhibition (HepG2, 0.12 µM) of 4%.

“CCAAGCAGGAGCTGGACAGA (sugars e5 d10 e5, PS)” was tested, and the target mRNA inhibition (HepG2, 0.12 µM) was 19%.

“CCTCCTCGAAGATCACCTGC (sugars e5 d10 e5, PS)” was tested, and the target mRNA inhibition (HepG2, 0.12 µM) was 49%.
